The values below come from patent US20050137176A1, “Use of a steroidal or non-steroidal EcR receptor ligand in a cosmetic or dermatological preparation for maintaining cutaneous homeostasis” (L'OREAL, priority 2003, published 2005).

One experiment has as its system psoriasin mRNA. As to the kind of experiment: Expression of psoriasin messenger RNA in reconstructed epidermides. The conditions noted are these: treatment for 7 days. Format: cell-based. From the text:
(§1) Ecdysterone was applied to the medium of reconstructed epidermides under the same conditions as those of Example 1.
(§2) After treatment for 7 days, the epidermides were harvested.

Another experiment concerns MRP8/MRP14 mRNA. As to the kind of experiment: Expression of MRP8/MRP14 messenger RNA in reconstructed epidermides. Format: cell-based. Particulars: treatment for 7 days.
From the text: as §1, §2

Experiment [1] concerns keratinocytes derived from a mammoplasty. As to the kind of experiment: Measurement of cell multiplication of keratinocytes (number of cells per flask). Format: cell-based, human. On the procedure: The keratinocytes are derived from a mammoplasty. These keratinocytes were isolated and then cultured in KGM medium (Clonetics) supplemented with growth factor (EGF (Epidermal Growth Factor): 10 ng/ml, 0.4 μg/ml, insulin 5 μg/ml, BPE (Bovine Pituitary Extract) 4 ml/L). The cells are treated with ecdysterone for 8 hours to 48 hours. There is no EGF in the culture medium during the treatment with ecdysterone. […]

The subject of another experiment is MRP8 and MRP14. As to the kind of experiment: Protein markers MRP8 and MRP14 by immunofluorescence on histological slices. The conditions noted are these: reconstructed epidermides, conditions of Example 1. Format: cell-based. The procedure: Ecdysterone was added to the medium of reconstructed epidermides under the same conditions as those of Example 1.
The proteins MRP8 and MRP14 are proteins that are strongly expressed in reconstructed skin, in psoriatic skin and by keratinocytes that are hyperproliferative but that have, however, maintained the capacity to differentiate. The analysis of the protein markers MRP8 and MRP14 was performed by immunofluorescence on histological slices.

Experiment [2] concerns normal human keratinocytes. As to the kind of experiment: Cell cycle analysis (DNA content by flow cytometry). Particulars: as a function of the amount of ecdysterone in the keratinocyte culture medium. Format: cell-based. The procedure: The cell cycle analysis consists in studying the DNA content of a cell population by flow cytometry. These studies were performed on normal human keratinocytes cultured as a monolayer in a defined medium (KGM-Clonetics).
The keratinocytes are derived from a mammoplasty. These keratinocytes were isolated and then cultured in KGM medium supplemented with growth factors (EGF: 10 ng/ml, 0.4 μg/ml, insulin 5 μg/ml, BPE (Bovine Pituitary Extract) 4 mL).
The cells are treated with ecdysterone for 8 hours to 48 hours. There is no EGF in the culture medium during the treatment with ecdysterone.
Ecdysterone was tested at the following concentrations: 1 μg/ml, 0.1 μg/ml and 0.01 μg/ml.
The protocol followed for the cell cycle analysis in flow cytometry is described in the following publication: Staiano-Coico L., Higgins P. J., Darzynkiewicz Z. et al; 1986 Human keratinocyte culture. Identification and stagind of epidermal cell subpopulations. J. Clin. Invest. 77, 396-404. The analysis was performed using a Facs Calibur 3C Trieur flow cytometer from the company Becton-Dickinson.

The test system of experiment [3] is reconstructed epidermides. The experiment is described as follows: Measurement of the thickness of the epidermis (histology, HES staining, image analysis). Format: cell-based. Particulars: ecdysterone in culture medium of reconstructed epidermes, 7 days. The procedure: Reconstructed epidermides were prepared according to the technique of Asselineau et al., 1985 (Asselineau D, Bernard B A, Bailly C. & Darmon M: Epidermal morphogenesis and induction of 67 kD Keratin polypeptide by culture at the air liquid interface Exp Cell Res 159: 536-539).
From the first day of exposure to the air/liquid interface, the epidermides were cultured in the presence of ecdysterone in the culture medium (1 to 1000 μg/ml). The epidermes were cultured for 7 days. The treatment was renewed every 48 hours by changing the culture medium. After treatment for 7 days, the epidermes were harvested. The histological analysis is performed after staining with HES (hematoxylin eosin saffron).
Epidermal thickness measurements were performed on histological slices. To do this, 10 measurements are taken on a field. For each sample, 5 fields are counted. These measurements are performed using a Leica Q600S image analysis system with an ×10 objective lens. The mean thickness obtained for each sample corresponds to 50 measurements taken.

As to `CC(C)(O)CC[C@@H](O)[C@](C)(O)[C@H]1CC[C@@]2(O)C3=CC(=O)[C@@H]4C[C@@H](O)[C@@H](O)C[C@]4(C)[C@H]3CC[C@]12C` [Ecdysterone, (2b, 3b, 5b,22R)-2,3,14,20,22,25-hexahydroxycholest-7-en-6-one], the “Reduction of the expression of psoriasin mRNA (factor)” value with psoriasin mRNA was 3.5. In the experiment on MRP8/MRP14 mRNA, the “Reduction of the expression of MRP8/MRP14 mRNA (factor)” value is given as 1.7. Also, the No of cells/flask is 3.6 × 10^5 cells/flask in experiment [1] (0.001 μg/ml, 16 hours, second series); 3.6 × 10^5 cells/flask in experiment [1] (0.001 μg/ml, 24 hours, second series); 1.6e+06 cells/flask in experiment [1] (0.001 μg/ml, 48 hours, second series); 0.8 × 10^6 cells/flask in experiment [1] (0.01 μg/ml, 16 hours, first series); 2.5 × 10^5 cells/flask in experiment [1] (0.01 μg/ml, 16 hours, second series); 1.0 × 10^6 cells/flask in experiment [1] (0.01 μg/ml, 24 hours, first series). In addition, the No of cells/flask was 5.7 × 10^5 cells/flask in experiment [1] (0.01 μg/ml, 24 hours, second series); 1.6 × 10^6 cells/flask in experiment [1] (0.01 μg/ml, 48 hours, second series); 0.8 × 10^6 cells/flask in experiment [1] (0.1 μg/ml, 8 hours, first series); 1.0 × 10^6 cells/flask in experiment [1] (0.1 μg/ml, 16 hours, first series); 3.6 × 10^5 cells/flask in experiment [1] (0.1 μg/ml, 16 hours, second series); 1.1 × 10^6 cells/flask in experiment [1] (0.1 μg/ml, 24 hours, first series). The No of cells/flask in experiment [1] (0.1 μg/ml, 24 hours, second series) was 5.2 × 10^5 cells/flask; in experiment [1] (0.1 μg/ml, 48 hours, second series), 1.5 × 10^6 cells/flask; in experiment [1] (1 μg/ml, 8 hours, first series), 0.7 × 10^6 cells/flask; in experiment [1] (1 μg/ml, 16 hours, first series), 0.5 × 10^6 cells/flask; in experiment [1] (1 μg/ml, 24 hours, first series), 1.1 × 10^6 cells/flask. Also, in experiment [1] (after treatment for 48 hours), the “Number of cells relative to the control cells” value was “no significant increase in the number of cells”. Also, the “Expression of the proteins MRP8 and MRP14 on histological slices” value in the experiment with MRP8 and MRP14 is “restricts the expression of MRP8 and MRP14 to the upper layers of the epidermis”. Also, the “Phases of the cell cycle (cell population between G0/G1 and G2/M)” value in experiment [2] was “change in the cell population between the phases G0/G1 and G2/M”. In addition, in experiment [3], the “Parakeratosis or reduction in the thickness of the horny layer” value was “not accompanied by parakeratosis”. Besides, the “Thickness of the epidermis at the level of the live layers” value in experiment [3] is recorded as “increase in the thickness of the epidermis at the level of the live layers”.
